Measured values as given in US20050282810A1, “Oxindole derivatives” (priority 2000, published 2005).

biological target: T1, TrkA (Homo sapiens, UniProt P04629); test: TrkA tyrosine kinase substrate phosphorylation assay (Src peptide, 33P-ATP, p81 filter plates); type: biochemical; conditions: GST-fusion of TrkA intracellular domain, 30 uM ATP, 50 uM Src peptide, RT 120 min
T1 construct: The enzyme is a GST-fusion of the intracellular domain expressed in SF9 cells; GST; host or cells: SF9 insect cells
Protocol: The compounds of the present invention have valuable pharmacologic properties. Different compounds from this class are particularly effective at inhibiting the trkA kinase enzyme at concentrations that range from 0.0001 to 1 μM and additionally show specificity relative to other kinases. Substrate phosphorylation assays were carried out as follows:
Screening format: Tyrosine kinase activity is being measured using a synthetic peptide substrate. The enzyme is a GST-fusion of the intracellular domain expressed in SF9 cells. The enzyme is expressed and purified by Regeneron. The enzyme is preincubated with cold ATP and Mg to allow autophosphorylation prior to running the screen. This increases the initial rate of catalysis approximately 3 fold. The assay is performed in 96 well microtitre plates, and reaction products are detected following filtration through millipore p81 phosphocellulose plates.

T1 sequence (P04629 440-796 limits assumed, species assumed): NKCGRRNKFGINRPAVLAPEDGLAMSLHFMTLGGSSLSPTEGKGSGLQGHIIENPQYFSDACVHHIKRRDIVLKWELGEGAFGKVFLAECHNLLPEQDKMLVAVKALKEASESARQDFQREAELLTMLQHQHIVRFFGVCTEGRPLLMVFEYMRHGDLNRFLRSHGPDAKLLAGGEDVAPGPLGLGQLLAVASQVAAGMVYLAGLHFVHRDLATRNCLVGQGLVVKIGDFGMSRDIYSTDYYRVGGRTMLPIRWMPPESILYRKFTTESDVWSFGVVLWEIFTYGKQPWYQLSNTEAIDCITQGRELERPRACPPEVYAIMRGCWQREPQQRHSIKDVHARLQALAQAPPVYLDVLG

Row | SMILES | IC50
1 | CCC1(c2ccc(N/C=C3\C(=O)Nc4ccccc43)cc2)CCC(=O)NC1=O (stereo not shown) [Example 3, 3-ethyl-3-(4-{[(Z)-(2-oxo-1,2-dihydro-3H-indol-3-ylidene)methyl]amino}phenyl)-2,6-piperidinedione] | < 10 nM
2 | Nc1nnc(-c2cccc(N/C=C3\C(=O)Nc4ccc5[nH]nnc5c43)c2)o1 [Example 4, (8Z)-8-{[3-(5-amino-1,3,4-oxadiazol-2-yl)anilino]methylene}-6,8-dihydro[1,2,3]triazolo[4,5-e]indol-7(3H)-one] | < 10 nM
3 | O=C1Nc2ccccc2/C1=C/Nc1ccc2[nH]c(=O)[nH]c2c1 [Example 1, 5-{[(Z)-(2-oxo-1,2-dihydro-3H-indol-3-ylidene)methyl]amino}-1,3-dihydro-2H-benzimidazol-2-one] | < 10 nM

Other lines, results leading:

Row | IC50 | SMILES
4 | 10 to 100 nM | O=C1Nc2ccccc2/C1=C/Nc1ccc(-c2nc[nH]n2)cc1 [Example 6, (3Z)-3-{[4-(1H-1,2,4-triazol-3-yl)anilino]methylene}-1,3-dihydro-2H-indol-2-one]
5 | < 10 nM | O=C1Nc2ccccc2/C1=C/Nc1ccc(-n2cncn2)cc1 [Example 2, (3Z)-3-{[4-(1H-1,2,4-triazol-1-yl)anilino]-methylene}-1,3-dihydro-2H-indol-2-one]
6 | 10 to 100 nM | NC(=O)Cc1ccc(N/C=C2\C(=O)Nc3ccccc32)cc1 [Example 5, 2-(4-{[(Z)-(2-oxo-1,2-dihydro-3H-indol-3-ylidene)methyl]amino}phenyl)acetamide]

tested on: not given; test: not given; conditions: not given

Row | melting point | SMILES
7 | > 250 °C | NC(=O)Cc1ccc(N/C=C2\C(=O)Nc3ccccc32)cc1 [Example 5, 2-(4-{[(Z)-(2-oxo-1,2-dihydro-3H-indol-3-ylidene)methyl]amino}phenyl)acetamide]
